In article PMC12383646, “Identification of Two Critical Contact Residues in a Pathogenic Epitope from Tetranectin for Monoclonal Antibody Binding and Preparation of Single-Chain Variable Fragments” (Biomolecules, 2025):

What was measured:
[1] = test system: 12F1 mAb; experiment: Indirect ELISA (iELISA) of 12F1 mAb on coated P5-5-BSA and P5-5 mutant-BSA; assay type: binding, mouse; conditions: peptide-BSA conjugate coated at 10 µg/mL; 12F1 mAb 1:2000; compared with WT P5-5 and negative control BSA; six repeated experiments (Figure 4)
Method: The P5-5 and mutants were conjugated to BSA by the EDC conjugating method. Firstly, the P5-5 and other 9 mutant peptide solutions (4 mg/mL in 0.1 M MES buffer, pH 4.7) were separately mixed with BSA solution (10 mg/mL in 0.1 M MES buffer, pH 4.7). Then, the reaction mixtures were all supplemented with 100 μL of EDC solution (10 mg/mL in deionized water) and incubated at 25 °C for 2 h to facilitate conjugation. The haptens were coupled to BSA at a molar ratio of 10:1 [14]. After a two-hour reaction, the resulting mixtures were subjected to dialysis against 0.01 M phosphate-buffered saline (PBS, pH 7.4) for 48 h. The final products were then stored at −20 °C for the following applications. The P5-5 and mutant conjugates were examined using native gel electrophoresis, and the concentration of the complete antigen was determined using the BCA protein assay kit.
Indirect ELISA (iELISA): To identify the key binding epitopes of the prepared mAb to the P5-5 epitope, P5-5-BSA, and P5-5 mutant-BSA, the antigens were coated onto 96-well plates at a concentration of 10 µg/mL [15]. Subsequently, purified 12F1 mAb diluted at 1:2000 in blocking buffer was added to the wells after blocking and washing. Following another washing step, goat anti-mouse IgG-HRP at a 1:5000 dilution in blocking buffer was added and incubated at 37 °C for 1 h. To commence color development, 100 μL of 3,3,5,5-Tetramethylbenzidine (TMB) solution was added to each well, followed by 100 μL of 2 M H2SO4. The absorbance at 450 nm was measured using a microplate reader.

[2] = test system: 12F1 mAb; experiment: Indirect competitive ELISA (ic-ELISA) of P5-5 and mutant peptides against 12F1 mAb; assay type: binding, mouse; conditions: coating P5-5-OVA 5 μg/mL; free peptide competitor 0.61 ng/mL-20 μg/mL; pre-mixed with 12F1 mAb 37 °C 30 min; compared with WT P5-5 (Figure 5)
Method: Indirect competitive ELISA (ic-ELISA): the inhibition ability of 12F1 mAb against P5-5 and its mutants was assessed through icELISA [16]. A coating antigen P5-5-OVA solution at a concentration of 5 μg/mL was prepared and dispensed (100 μL) into each well of a 96-well ELISA plate. The plates were then left to incubate at 4 °C overnight. Following washing, 5% (w/v) PBSM was added to each well and incubated at 37 °C for 2 h. The synthesized peptides of P5-5 and its variants were prepared as 1 mg/mL stock solution (dissolved in 0.01M PBS, pH 7.4). These peptides were then serially diluted in PBSM to concentrations of 20 μg/mL, 10 μg/mL, 5 μg/mL, 2.5 μg/mL, 1.25 μg/mL, 625 ng/mL, 312.5 ng/mL, 156.25 ng/mL, 78.13 ng/mL, 39.06 ng/mL, 19.53 ng/mL, 9.77 ng/mL, 4.88 ng/mL, 2.44 ng/mL, 1.22 ng/mL, and 0.61 ng/mL for the competitor in the ic-ELISA assay. Subsequently, 12F1 mAb was mixed thoroughly with the diluted solutions of P5-5 and its mutants at equal volume at 37 °C for 30 min incubation and reaction. Following this, each well was impressed by 100 μL of the mixture, which was then incubated at 37 °C for one hour. The succeeding stages, which included the addition of HRP-goat anti-mouse serum, TMB substrate solution, and stop solution, were carried out as described earlier. The measurement of the OD value was then taken under 450 nm. The IC50 values of the 12F1 monoclonal antibody against synthesized P5-5 and nine other mutant peptides were determined using the four-parameter logistic equations in Prism 9.0 GraphPad software (version 9.0 GraphPad Software), following the established methodology.

Row | Sequence | binding activity of 12F1 mAb (indirect ELISA, OD 450 nm) [1] | antigen inhibitory capability / antibody binding in ic-ELISA [2]
1 | NAALYEYLRQ [DA2, P5-5 mutant, position 2 (Asp) mutated to alanine] | weak binding signals | significantly reduced compared to the WT P5-5
2 | NDAAYEYLRQ [L4A, P5-5 mutant, position 4 (Leu) mutated to alanine] | significantly reduced to levels similar to the negative control | entirely lost their ability to bind antibodies
3 | NDALAEYLRQ [Y5A, P5-5 mutant, position 5 (Tyr) mutated to alanine] | weak binding signals | significantly reduced compared to the WT P5-5
4 | NDALYAYLRQ [E6A, P5-5 mutant, position 6 (Glu) mutated to alanine] | weak binding signals | significantly reduced compared to the WT P5-5
5 | NDALYEALRQ [Y7A, P5-5 mutant, position 7 (Tyr) mutated to alanine] | weak binding signals | significantly reduced compared to the WT P5-5
6 | NDALYEYARQ [L8A, P5-5 mutant, position 8 (Leu) mutated to alanine] | significantly reduced to levels similar to the negative control | entirely lost their ability to bind antibodies
